In PubChem BioAssay (NCI):
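GI50: concentration for 50% inhibition of growth. TGI: total growth inhibition.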

Experiments:
Assay in all cases: DTP human tumour cell line panel, 384-well format
HOP-92 NSCLC = test system: HOP-92 NSCLC
BT-549 breast = test system: BT-549 breast
HL-60(TB) leukemia = test system: HL-60(TB) leukemia
MCF7 breast = test system: MCF7 breast
SR leukemia = test system: SR leukemia
SK-MEL-2 melanoma = test system: SK-MEL-2 melanoma
COLO 205 colon = test system: COLO 205 colon
A549 NSCLC = test system: A549 NSCLC
HCT-15 colon = test system: HCT-15 colon
SW-620 colon = test system: SW-620 colon
OVCAR-4 ovarian = test system: OVCAR-4 ovarian
T-47D breast = test system: T-47D breast
HS 578T breast = test system: HS 578T breast
A498 renal = test system: A498 renal
OVCAR-3 ovarian = test system: OVCAR-3 ovarian
NCI-H522 lung = test system: NCI-H522 lung
SK-MEL-28 melanoma = test system: SK-MEL-28 melanoma
DU-145 prostate = test system: DU-145 prostate
NCI-H23 lung = test system: NCI-H23 lung
MDA-MB-468 breast = test system: MDA-MB-468 breast
SF-268 CNS = test system: SF-268 CNS
MALME-3M melanoma = test system: MALME-3M melanoma
MDA-MB-231 breast = test system: MDA-MB-231 breast
SNB-75 CNS = test system: SNB-75 CNS
HCT-116 colon = test system: HCT-116 colon
LOX IMVI melanoma = test system: LOX IMVI melanoma
NCI-H226 lung = test system: NCI-H226 lung
NCI/ADR-RES ovarian = test system: NCI/ADR-RES ovarian
K-562 leukemia = test system: K-562 leukemia
ACHN renal = test system: ACHN renal
UO-31 renal = test system: UO-31 renal
CCRF-CEM leukemia = test system: CCRF-CEM leukemia
TK-10 renal = test system: TK-10 renal
MOLT-4 leukemia = test system: MOLT-4 leukemia
786-0 renal = test system: 786-0 renal
HOP-62 NSCLC = test system: HOP-62 NSCLC
OVCAR-5 ovarian = test system: OVCAR-5 ovarian
RPMI-8226 leukemia = test system: RPMI-8226 leukemia
EKVX NSCLC = test system: EKVX NSCLC
SN12C renal = test system: SN12C renal
KM12 colon = test system: KM12 colon
NCI-H322M lung = test system: NCI-H322M lung
MDA-MB-435 melanoma = test system: MDA-MB-435 melanoma
UACC-62 melanoma = test system: UACC-62 melanoma
CAKI-1 renal = test system: CAKI-1 renal
NCI-H460 NSCLC = test system: NCI-H460 NSCLC
U251 glioblastoma = test system: U251 glioblastoma
UACC-257 melanoma = test system: UACC-257 melanoma
HT29 colon = test system: HT29 colon
SK-OV-3 ovarian = test system: SK-OV-3 ovarian
RXF 393 renal = test system: RXF 393 renal
M14 melanoma = test system: M14 melanoma
SF-295 CNS = test system: SF-295 CNS
PC-3 prostate = test system: PC-3 prostate
SF-539 CNS = test system: SF-539 CNS
HCC-2998 colon = test system: HCC-2998 colon
IGROV1 ovarian = test system: IGROV1 ovarian
SK-MEL-5 melanoma = test system: SK-MEL-5 melanoma
SNB-19 CNS = test system: SNB-19 CNS

SMILES: COc1nccc(-c2c(-c3ccc(F)cc3)ncn2C2CCC(O)CC2)n1 (stereo not drawn)
- GI50 (HOP-92 NSCLC): > 100 µM
- TGI (HOP-92 NSCLC): > 100 µM
- GI50 (BT-549 breast): > 100 µM
- TGI (BT-549 breast): > 100 µM
- GI50 (HL-60(TB) leukemia): 77 µM
- TGI (HL-60(TB) leukemia): > 100 µM
- GI50 (MCF7 breast): 36.2 µM
- TGI (MCF7 breast): > 100 µM
- GI50 (SR leukemia): 31.6 µM
- TGI (SR leukemia): > 100 µM
- GI50 (SK-MEL-2 melanoma): > 100 µM
- TGI (SK-MEL-2 melanoma): > 100 µM
- GI50 (COLO 205 colon): > 100 µM
- TGI (COLO 205 colon): > 100 µM
- GI50 (A549 NSCLC): 39.2 µM
- TGI (A549 NSCLC): > 100 µM
- GI50 (HCT-15 colon): 58.7 µM
- TGI (HCT-15 colon): > 100 µM
- GI50 (SW-620 colon): > 100 µM
- TGI (SW-620 colon): > 100 µM
- GI50 (OVCAR-4 ovarian): > 100 µM
- TGI (OVCAR-4 ovarian): > 100 µM
- GI50 (T-47D breast): > 100 µM
- TGI (T-47D breast): > 100 µM
- GI50 (HS 578T breast): > 100 µM
- TGI (HS 578T breast): > 100 µM
- GI50 (A498 renal): > 100 µM
- TGI (A498 renal): > 100 µM
- GI50 (OVCAR-3 ovarian): > 100 µM
- TGI (OVCAR-3 ovarian): > 100 µM
- GI50 (NCI-H522 lung): 22.6 µM
- TGI (NCI-H522 lung): 93.5 µM
- GI50 (SK-MEL-28 melanoma): > 100 µM
- TGI (SK-MEL-28 melanoma): > 100 µM
- GI50 (DU-145 prostate): > 100 µM
- TGI (DU-145 prostate): > 100 µM
- GI50 (NCI-H23 lung): > 100 µM
- TGI (NCI-H23 lung): > 100 µM
- GI50 (MDA-MB-468 breast): 13.2 µM
- TGI (MDA-MB-468 breast): > 100 µM
- GI50 (SF-268 CNS): > 100 µM
- TGI (SF-268 CNS): > 100 µM
- GI50 (MALME-3M melanoma): > 100 µM
- TGI (MALME-3M melanoma): > 100 µM
- GI50 (MDA-MB-231 breast): > 100 µM
- TGI (MDA-MB-231 breast): > 100 µM
- GI50 (SNB-75 CNS): > 100 µM
- TGI (SNB-75 CNS): > 100 µM
- GI50 (HCT-116 colon): > 100 µM
- TGI (HCT-116 colon): > 100 µM
- GI50 (LOX IMVI melanoma): > 100 µM
- TGI (LOX IMVI melanoma): > 100 µM
- GI50 (NCI-H226 lung): 91.2 µM
- TGI (NCI-H226 lung): > 100 µM
- GI50 (NCI/ADR-RES ovarian): > 100 µM
- TGI (NCI/ADR-RES ovarian): > 100 µM
- GI50 (K-562 leukemia): 36.1 µM
- TGI (K-562 leukemia): > 100 µM
- GI50 (ACHN renal): 36.3 µM
- TGI (ACHN renal): > 100 µM
- GI50 (UO-31 renal): 31.4 µM
- TGI (UO-31 renal): > 100 µM
- GI50 (CCRF-CEM leukemia): 50 µM
- TGI (CCRF-CEM leukemia): > 100 µM
- GI50 (TK-10 renal): 37.4 µM
- TGI (TK-10 renal): > 100 µM
- GI50 (MOLT-4 leukemia): 29.5 µM
- TGI (MOLT-4 leukemia): > 100 µM
- GI50 ([…]-0 renal): 69.8 µM
- TGI (786-0 renal): > 100 µM
- GI50 (HOP-62 NSCLC): > 100 µM
- TGI (HOP-62 NSCLC): > 100 µM
- GI50 (OVCAR-5 ovarian): > 100 µM
- TGI (OVCAR-5 ovarian): > 100 µM
- GI50 (RPMI-8226 leukemia): 90.1 µM
- TGI (RPMI-8226 leukemia): > 100 µM
- GI50 (EKVX NSCLC): > 100 µM
- TGI (EKVX NSCLC): > 100 µM
- GI50 (SN12C renal): > 100 µM
- TGI (SN12C renal): > 100 µM
- GI50 (KM12 colon): > 100 µM
- TGI (KM12 colon): > 100 µM
- GI50 (NCI-H322M lung): > 100 µM
- TGI (NCI-H322M lung): > 100 µM
- GI50 (MDA-MB-435 melanoma): > 100 µM
- TGI (MDA-MB-435 melanoma): > 100 µM
- GI50 (UACC-62 melanoma): > 100 µM
- TGI (UACC-62 melanoma): > 100 µM
- GI50 (CAKI-1 renal): 31.7 µM
- TGI (CAKI-1 renal): > 100 µM
- GI50 (NCI-H460 NSCLC): 71.6 µM
- TGI (NCI-H460 NSCLC): > 100 µM
- GI50 (U251 glioblastoma): > 100 µM
- TGI (U251 glioblastoma): > 100 µM
- GI50 (UACC-257 melanoma): > 100 µM
- TGI (UACC-257 melanoma): > 100 µM
- GI50 (HT29 colon): 46 µM
- TGI (HT29 colon): > 100 µM
- GI50 (SK-OV-3 ovarian): 62.5 µM
- TGI (SK-OV-3 ovarian): > 100 µM
- GI50 (RXF 393 renal): > 100 µM
- TGI (RXF 393 renal): > 100 µM
- GI50 (M14 melanoma): > 100 µM
- TGI (M14 melanoma): > 100 µM
- GI50 (SF-295 CNS): > 100 µM
- TGI (SF-295 CNS): > 100 µM
- GI50 (PC-3 prostate): > 100 µM
- TGI (PC-3 prostate): > 100 µM
- GI50 (SF-539 CNS): > 100 µM
- TGI (SF-539 CNS): > 100 µM
- GI50 (HCC-2998 colon): > 100 µM
- TGI (HCC-2998 colon): > 100 µM
- GI50 (IGROV1 ovarian): 38.5 µM
- TGI (IGROV1 ovarian): > 100 µM
- GI50 (SK-MEL-5 melanoma): 90.3 µM
- TGI (SK-MEL-5 melanoma): > 100 µM
- GI50 (SNB-19 CNS): > 100 µM
- TGI (SNB-19 CNS): > 100 µM
